Read-outs that look alike come from different tables or passages of the source.
Columns and labels:
[1] = test system: 44 tumor cell lines; settings: matched 44 cell line panel; cited from earlier work
[2] = test system: OVCAR-3 xenograft; settings: 50 mg/kg p.o. QD for 28 days, day 45; cited from earlier work
[3] = molecular target: PI3Kγ (Homo sapiens, UniProt P48736); assay: DiscoverX KdELECT; settings: Inhibitor binding constant Kd PI3Kγ, fourth PI3K column of Table S2
[4] = Pharmacokinetics in mice; settings: plasma, 10 mg/kg p.o.
[5] = test system: CEREP BioPrint (P22-p) panel; assay: CEREP BioPrint; type: binding; settings: 10 μM
[6] = test system: 66 cancer cell lines; assay: NTRC Oncolines proliferation, panel mean; type: cell-based; settings: read-out: mean half-maximal growth inhibition (GI50)
[7] = Liver microsome stability; type: in vitro ADME; settings: dog, liver microsomes, pH 7.4
[8] = molecular target: PI3Kβ (Homo sapiens, UniProt P42338); assay: DiscoverX KdELECT; settings: Inhibitor binding constant Kd PI3Kβ, second PI3K column of Table S2
[9] = Liver microsome stability; type: in vitro ADME; settings: rat, liver microsomes, pH 7.4
[10] = molecular target: PI3Kα (Homo sapiens, UniProt P42336); assay: DiscoverX KdELECT; settings: Inhibitor binding constant Kd PI3Kα, first PI3K column of Table S2
[11] = test system: OVCAR-3 xenograft; assay: OVCAR-3 xenograft model; type: in vivo, BALB/c nude mice; settings: 6.3 mg/kg p.o. QD
[12] = molecular target: T1, PI3Kδ (Homo sapiens, UniProt O00329); assay: DiscoverX KdELECT; settings: Inhibitor binding constant Kd PI3Kδ, third PI3K column of Table S2
T1 sequence (O00329 1-1044): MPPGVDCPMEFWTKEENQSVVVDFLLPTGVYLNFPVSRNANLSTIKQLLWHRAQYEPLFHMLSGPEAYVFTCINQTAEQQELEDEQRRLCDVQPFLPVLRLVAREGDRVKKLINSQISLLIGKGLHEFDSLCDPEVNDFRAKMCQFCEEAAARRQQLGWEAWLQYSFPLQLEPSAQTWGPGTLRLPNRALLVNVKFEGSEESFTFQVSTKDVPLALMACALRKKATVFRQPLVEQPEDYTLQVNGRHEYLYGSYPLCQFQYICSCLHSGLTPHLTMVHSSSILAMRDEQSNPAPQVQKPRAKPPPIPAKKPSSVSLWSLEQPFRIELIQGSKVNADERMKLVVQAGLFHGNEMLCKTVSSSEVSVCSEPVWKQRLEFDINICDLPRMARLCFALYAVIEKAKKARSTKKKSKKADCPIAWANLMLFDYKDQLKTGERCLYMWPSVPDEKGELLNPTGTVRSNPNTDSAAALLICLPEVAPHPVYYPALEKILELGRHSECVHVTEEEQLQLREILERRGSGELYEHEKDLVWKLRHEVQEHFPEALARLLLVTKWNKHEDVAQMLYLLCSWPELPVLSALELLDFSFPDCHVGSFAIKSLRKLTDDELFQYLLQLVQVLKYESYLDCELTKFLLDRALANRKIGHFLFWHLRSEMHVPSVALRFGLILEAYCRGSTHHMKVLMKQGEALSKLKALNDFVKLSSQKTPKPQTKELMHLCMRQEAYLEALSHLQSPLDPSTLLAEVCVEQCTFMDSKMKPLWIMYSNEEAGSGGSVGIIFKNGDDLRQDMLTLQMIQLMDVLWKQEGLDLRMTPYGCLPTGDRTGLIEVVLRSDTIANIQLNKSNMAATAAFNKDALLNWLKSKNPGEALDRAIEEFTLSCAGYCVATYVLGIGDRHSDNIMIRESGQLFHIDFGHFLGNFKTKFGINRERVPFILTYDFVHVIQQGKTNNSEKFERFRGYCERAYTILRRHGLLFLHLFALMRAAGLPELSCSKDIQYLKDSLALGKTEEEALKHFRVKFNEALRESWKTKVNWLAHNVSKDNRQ

[13] = test system: 44 tumor cell lines; assay: NTRC Oncolines proliferation, panel mean; type: cell-based; settings: 4-4 cell
[14] = test system: protein and lipid kinases (KINOMEScan panel); assay: KINOMEScan panel selectivity; type: binding; settings: 10 μM
[15] = Liver microsome stability; type: in vitro ADME; settings: human, liver microsomes, pH 7.4

Chain of PI3Kβ (P42338 whole entry): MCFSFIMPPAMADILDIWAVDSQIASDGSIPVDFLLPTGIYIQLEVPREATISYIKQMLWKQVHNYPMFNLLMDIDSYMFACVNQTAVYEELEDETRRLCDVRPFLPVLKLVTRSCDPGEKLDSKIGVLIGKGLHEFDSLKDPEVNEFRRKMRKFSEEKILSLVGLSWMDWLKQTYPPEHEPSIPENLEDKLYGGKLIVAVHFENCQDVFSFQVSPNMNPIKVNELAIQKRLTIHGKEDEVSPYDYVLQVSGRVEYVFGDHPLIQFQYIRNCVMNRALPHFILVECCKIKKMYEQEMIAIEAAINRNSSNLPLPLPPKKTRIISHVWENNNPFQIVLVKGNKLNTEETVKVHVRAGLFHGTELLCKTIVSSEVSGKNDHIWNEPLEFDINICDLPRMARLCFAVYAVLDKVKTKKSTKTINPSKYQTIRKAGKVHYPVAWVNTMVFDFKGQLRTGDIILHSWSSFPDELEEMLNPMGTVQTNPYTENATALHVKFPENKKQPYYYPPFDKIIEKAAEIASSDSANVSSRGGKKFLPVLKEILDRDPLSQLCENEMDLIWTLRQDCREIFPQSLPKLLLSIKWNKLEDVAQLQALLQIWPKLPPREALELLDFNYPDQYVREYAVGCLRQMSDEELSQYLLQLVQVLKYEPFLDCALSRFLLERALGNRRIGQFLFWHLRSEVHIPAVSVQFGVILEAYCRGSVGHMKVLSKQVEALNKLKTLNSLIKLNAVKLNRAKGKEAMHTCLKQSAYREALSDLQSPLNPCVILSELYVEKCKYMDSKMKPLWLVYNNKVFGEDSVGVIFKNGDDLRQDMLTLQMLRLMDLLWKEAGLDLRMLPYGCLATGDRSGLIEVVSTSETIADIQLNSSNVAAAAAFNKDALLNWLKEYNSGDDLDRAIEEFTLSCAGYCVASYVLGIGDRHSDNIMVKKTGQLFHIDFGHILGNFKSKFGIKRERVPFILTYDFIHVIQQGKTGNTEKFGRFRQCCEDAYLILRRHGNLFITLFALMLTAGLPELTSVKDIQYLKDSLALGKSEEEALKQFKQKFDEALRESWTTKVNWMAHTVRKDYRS
Chain of PI3Kγ (P48736 whole entry): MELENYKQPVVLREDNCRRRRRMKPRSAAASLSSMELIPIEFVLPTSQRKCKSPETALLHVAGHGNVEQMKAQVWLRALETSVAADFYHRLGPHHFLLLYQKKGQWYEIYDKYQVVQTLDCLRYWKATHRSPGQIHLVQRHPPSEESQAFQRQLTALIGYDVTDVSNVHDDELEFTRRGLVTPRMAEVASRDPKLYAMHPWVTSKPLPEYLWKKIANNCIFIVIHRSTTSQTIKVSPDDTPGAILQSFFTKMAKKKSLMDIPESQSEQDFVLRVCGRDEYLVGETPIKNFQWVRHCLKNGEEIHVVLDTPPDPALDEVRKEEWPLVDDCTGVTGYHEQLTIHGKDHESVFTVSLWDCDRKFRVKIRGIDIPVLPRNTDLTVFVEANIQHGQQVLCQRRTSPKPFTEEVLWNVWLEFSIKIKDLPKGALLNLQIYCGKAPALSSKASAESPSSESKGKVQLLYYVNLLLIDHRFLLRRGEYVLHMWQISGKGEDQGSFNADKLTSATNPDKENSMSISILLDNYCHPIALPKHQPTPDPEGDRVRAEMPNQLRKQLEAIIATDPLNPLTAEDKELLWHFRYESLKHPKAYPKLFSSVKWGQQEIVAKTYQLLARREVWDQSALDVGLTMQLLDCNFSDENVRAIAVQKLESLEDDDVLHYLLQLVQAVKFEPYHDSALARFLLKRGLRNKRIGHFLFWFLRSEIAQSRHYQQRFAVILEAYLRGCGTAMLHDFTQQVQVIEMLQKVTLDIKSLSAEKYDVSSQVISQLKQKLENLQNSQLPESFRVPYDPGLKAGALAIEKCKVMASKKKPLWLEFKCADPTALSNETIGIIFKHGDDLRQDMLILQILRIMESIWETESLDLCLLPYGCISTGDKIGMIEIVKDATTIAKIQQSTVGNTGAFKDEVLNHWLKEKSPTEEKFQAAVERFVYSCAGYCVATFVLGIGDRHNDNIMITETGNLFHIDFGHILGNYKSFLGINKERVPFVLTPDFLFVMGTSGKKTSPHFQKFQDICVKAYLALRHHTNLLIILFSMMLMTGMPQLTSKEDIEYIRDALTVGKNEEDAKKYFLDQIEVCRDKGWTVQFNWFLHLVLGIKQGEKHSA
Chain of PI3Kα (P42336 whole entry): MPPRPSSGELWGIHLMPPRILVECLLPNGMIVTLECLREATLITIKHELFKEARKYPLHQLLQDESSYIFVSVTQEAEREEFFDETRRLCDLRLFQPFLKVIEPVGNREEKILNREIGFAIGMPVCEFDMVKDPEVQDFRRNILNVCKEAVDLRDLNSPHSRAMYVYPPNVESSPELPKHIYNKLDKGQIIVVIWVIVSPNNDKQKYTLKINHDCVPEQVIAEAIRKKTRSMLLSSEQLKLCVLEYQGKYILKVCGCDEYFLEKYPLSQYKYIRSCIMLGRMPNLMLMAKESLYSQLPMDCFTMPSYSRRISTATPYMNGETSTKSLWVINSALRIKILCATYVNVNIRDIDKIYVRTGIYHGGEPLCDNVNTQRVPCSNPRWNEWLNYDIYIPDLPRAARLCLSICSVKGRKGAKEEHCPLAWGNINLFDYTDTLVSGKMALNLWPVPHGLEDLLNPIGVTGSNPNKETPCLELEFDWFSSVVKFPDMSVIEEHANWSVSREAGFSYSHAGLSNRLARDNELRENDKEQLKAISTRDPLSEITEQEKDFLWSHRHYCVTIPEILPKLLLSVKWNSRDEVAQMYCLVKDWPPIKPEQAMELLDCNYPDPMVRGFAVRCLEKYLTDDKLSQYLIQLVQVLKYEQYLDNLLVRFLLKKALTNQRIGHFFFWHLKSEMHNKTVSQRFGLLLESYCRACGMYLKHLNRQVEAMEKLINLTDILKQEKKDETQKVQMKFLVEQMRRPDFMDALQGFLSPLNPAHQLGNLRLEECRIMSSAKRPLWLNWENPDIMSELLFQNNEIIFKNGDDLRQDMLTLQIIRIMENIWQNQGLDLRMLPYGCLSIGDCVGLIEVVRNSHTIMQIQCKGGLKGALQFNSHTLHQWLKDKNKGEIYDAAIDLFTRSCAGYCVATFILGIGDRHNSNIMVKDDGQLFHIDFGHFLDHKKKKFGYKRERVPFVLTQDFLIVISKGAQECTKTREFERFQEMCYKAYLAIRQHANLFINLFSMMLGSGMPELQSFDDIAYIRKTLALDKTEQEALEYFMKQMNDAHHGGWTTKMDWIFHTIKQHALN

| Structure (SMILES) | GI50 [1] | mean tumor size [2] | Kd [3] | Cl [4] | off-target interactions [5] | GI50 [6] | remaining at 0.5 h, 1 µM [7] | Kd [8] | remaining at 0.5 h, 1 µM [9] | Kd [10] | body weight / tolerability [11] | tumor weight analysis vs vehicle ([11]; day 45) | Kd [12] | GI50 [13] | interference with protein kinase activities [14] | remaining at 0.5 h, 1 µM [15] |
| --- | --- | --- | --- | --- | --- | --- | --- | --- | --- | --- | --- | --- | --- | --- | --- | --- |
| C[C@H]1COCCN1c1nc(-c2cnc(N)cc2C(F)F)nc(N2CCOCC2)n1 [PQR530 (16), (S)-4-(Difluoromethyl)-5-(4-(3-methylmorpholino)-6-morpholino-1,3,5-triazin-2-yl)p yridin-2-amine] | ~400 nM | – | – | – | – | – | – | – | – | – | – | – | – | – | – | – |
| Nc1cc(C(F)(F)F)c(-c2nc(N3CCOCC3)nc(N3CCOCC3)n2)cn1 [PQR309 (1), 5-(4,6-Dimorpholino-1,3,5-triazin-2-yl)-4-(trifluoromethyl)pyridin-2-amine] | ~1000 nM | 571 mm^3 | – | – | – | – | – | – | – | – | – | – | – | – | – | – |
| Nc1ncc(-c2nc(N3CCOCC3)nc(N3CCOCC3)n2)c(C(F)F)n1 [PQR514 (4)] | – | – | < 7 nM | 15.6 mL/min/kg | With the exception of human PDE3A (phosphodiesterase 3A), no or very weak interactions were detected | 250 nM | 92.7 ± 0.2% | < 7 nM | 109 ± 10.7% | < 7 nM | no significant body weight loss was observed | significantly inhibited tumor growth | < 7 nM | 240 nM | negligible interference with protein kinase activities | 87.2 ± 3.5% |

From article PMC6792169 (ACS Medicinal Chemistry Letters, 2019)
